Results from US9409952B2, “Peptide-compound cyclization method” (Chugai Seiyaku Kabushiki Kaisha, priority 2011, dated 2016).
Where two headings read alike, the source gives them in different places. Starred links: 1 amine or outer side, 2 acyl side, 3 side chain; linkers in the order of their positions; H or OH if unused. Positions of bridges follow the written chain, without caps; N, C: chain ends. Non-standard residues stand in square brackets, D forms with d. Residues, ends and D or L forms follow the SMILES beside them. *: point of attachment. Phe(3-(CH2)4CO) = O=C([C@H](Cc1cccc(CCCCC(=O)[*:3])c1)N[*:1])[*:2]; Tyr(3-F) = N[C@@H](Cc1ccc(O)c(F)c1)C(=O)O; NEtPhe = CCN[C@@H](Cc1ccccc1)C(=O)O; Lys(Me2) = CN(C)CCCC[C@H](N)C(=O)O; NMeF = CN[C@@H](Cc1ccccc1)C(=O)O; NMeI = CC[C@H](C)[C@H](NC)C(=O)O; NMeβAla = CN(CCC(=O)[*:2])[*:1]; AllylGly = C=CC[C@H](N)C(=O)O; NMeL = CN[C@@H](CC(C)C)C(=O)O; NMeV = CN[C@H](C(=O)O)C(C)C; NMeA = CN[C@@H](C)C(=O)O; Piperidide = C1CCN(*)CC1; dNMeA = CN[C@H](C)C(=O)O; Aze = O=C(O)[C@@H]1CCN1; NPrGly = CCCNCC(=O)O; Sar = CNCC(=O)O; tBu = CC(C)(C)*

Columns and labels:
[1] = PAMPA (parallel artificial membrane permeability assay); format: in vitro ADME; details: PAMPA; membrane permeation rate (Pe); 50 mM MOPSO buffer pH 6.5 with 5.0% glycocholic acid, 37° C., 18 hours; read-out: iPAMPA Pe
Procedure: 4 μL of a phospholipid-organic solvent solution composed of 10% (w/v) of egg lecithin, 0.5% (w/v) of cholesterol and dodecane (all purchased from Fluka) was added to a Millipore 96-well membrane filter (hydrophobic PVDF (polyvinylidene difluoride), pore size 0.45 microm) (purchased from Millipore Japan) to make an artificial phospholipid membrane.
A DMSO solution containing the compound at a concentration of 10 mM was added in a percentage of 0.5% (v/v) to a 50 mM MOPSO buffer, pH 6.5, containing 5.0% (w/v) of glycocholic acid, and 330 μL of the mixture was added to a 96-well plate made of Teflon (donor plate). The above artificial phospholipid membrane plate was attached onto the donor plate, and 280 μL of a solution obtained by adding DMSO in a percentage of 0.5% (v/v) to a 50 mM MOPSO buffer, pH 6.5, containing 5.0% (w/w) of glycocholic acid was added onto the artificial phospholipid membrane (acceptor plate). These plates were allowed to stand at 37° C. for 18 hours, after which the concentrations of the compound in the solutions in the donor plate and the acceptor plate were measured by LC/MS or LC/UV, and the membrane permeation rate of the compound (Pe) was calculated by the following formulas (1) and (2), where t is the testing time, A is the membrane filter area, VD is the amount of the donor solution, VA is the amount of the acceptor solution, CD,t is the concentration of the compound in the donor solution at the time t, and CA,t is the concentration of the compound in the acceptor solution at the time t.

[2] = Metabolic stability in human hepatic microsome; format: in vitro ADME
[3] = human, microsomes, pH 7.4, CL NADPH(+)
[4] = microsomes, pH 7.4, human hepatic microsome, NADPH(+), read-out: CL NADPH(+)

Structure (SMILES)	microsomal CLint at 1 uM [2, 4] [µL/min/mg]	also measured
CC(C)C[C@@H]1NC(=O)[C@H](CC(C)C)N(C)C(=O)[C@H](CCCCN(C)C)NC(=O)[C@H](CC(C)C)N(C)C(=O)[C@H](Cc2ccccc2)N(C)C(=O)[C@H](CC(C)C)N(C)C(=O)[C@@H](C(C)C)NC(=O)C[C@@H](C(=O)N(C)[C@@H](Cc2ccccc2)C(=O)N[C@@H](C)C(=O)N2CCCCC2)NC(=O)[C@H](CC(C)C)N(C)C(=O)[C@H](CC(C)C)N(C)C1=O [DP-588] ([dV][NMeL][NMeF][NMeL][Lys(Me2)][NMeL]L[NMeL][NMeL]D[NMeF]A-Piperidide; lactam N-10)	–	Papp at 18 hours, 50 µM [1]: 0.6 ×10⁻⁶ cm/s
CC[C@H](C)[C@@H]1NC(=O)[C@H](Cc2ccccc2)N(C)C(=O)[C@H](Cc2ccccc2)NC(=O)[C@H](CC(C)C)NC(=O)[C@H](CC(C)C)N(C)C(=O)[C@H](C)N(C)C(=O)[C@H](C(C)C)NC(=O)[C@H](C)NC(=O)C[C@@H](C(=O)N2CCCCC2)NC(=O)[C@H](CC(C)C)N(C)C(=O)[C@H]([C@@H](C)O)NC(=O)[C@@H]2CCCN2C1=O [DP-25] (AV[NMeA][NMeL]LF[NMeF]IPT[NMeL]D-Piperidide; lactam N-12)	–	microsomal CLint at 1 uM [2, 3]: 24 µL/min/mg
CC[C@H](C)[C@H]1C(=O)NCC(=O)N(C)[C@@H](CC(C)C)C(=O)N[C@@H]([C@@H](C)O)C(=O)N2CCC[C@H]2C(=O)N[C@@H](Cc2ccccc2)C(=O)N[C@H](C(=O)N2CCCCC2)CC(=O)N2CC[C@H]2C(=O)N[C@@H](Cc2ccccc2)C(=O)N(C)[C@@H](CC(C)C)C(=O)N[C@@H](CC(C)C)C(=O)N1C [DP-550] ([Aze]F[NMeL]L[NMeI]G[NMeL]TPFD-Piperidide; lactam N-11)	108	–
CC[C@H](C)[C@@H]1NC(=O)[C@H](Cc2ccccc2)N(C)C(=O)[C@H](Cc2ccccc2)NC(=O)[C@H](C(C)C)N(C)C(=O)[C@H](CC(C)C)N(C)C(=O)[C@H](CC(C)C)NC(=O)[C@H](C)NC(=O)C[C@@H](C(=O)N2CCCCC2)NC(=O)[C@H]([C@@H](C)O)NC(=O)CNC(=O)[C@@H]2CCCN2C1=O [DP-14] (AL[NMeL][NMeV]F[NMeF]IPGTD-Piperidide; lactam N-11)	–	microsomal CLint at 1 uM [2, 3]: 57 µL/min/mg
CC(C)C[C@H]1C(=O)N[C@@H](COC(C)(C)C)C(=O)N[C@H](C(=O)N2CCCCC2)CCC(=O)N[C@@H](C)C(=O)N(C)[C@@H](C)C(=O)N(C)[C@@H](Cc2ccccc2)C(=O)N(C)[C@@H](CC(C)C)C(=O)N[C@@H]([C@@H](C)O)C(=O)N(C)CC(=O)N1C [Compound P-121, Ala-MeAla-MePhe-MeLeu-Thr-MeGly-MeLeu-Ser(tBu)-Glu-piperidine] (A[NMeA][NMeF][NMeL]T[Sar][NMeL]S(tBu)E-Piperidide; lactam N-9)	–	Hepatic microsome CLhint (Human) In the absence of NADPH [2]: 8 ul/min/mg Protein; Hepatic microsome CLhint (Human) In the presence of NADPH [2]: 69 ul/min/mg Protein; microsomal CLint at 1 uM ([2]; human, liver microsomes, pH 7.4, Hepatic microsome CLhint (Human) In the presence of NADPH): 29 µL/min/mg
CC(C)C[C@@H]1NC(=O)CN(C)C(=O)[C@H](C)NC(=O)[C@H]([C@@H](C)O)NC(=O)[C@@H](C)N(C)C(=O)C[C@@H](C(=O)N2CCCCC2)NC(=O)[C@H](CC(C)C)N(C)C(=O)[C@H](CC(C)C)NC(=O)[C@H](C(C)C)N(C)C(=O)[C@H](CC(C)C)NC(=O)[C@H](Cc2ccccc2)NC1=O [DP-328] ([dNMeA]TA[Sar]LFL[NMeV]L[NMeL]D-Piperidide; lactam N-11)	32	–
CC[C@H](C)[C@H]1C(=O)N(C)[C@@H](CC(C)C)C(=O)NCC(=O)N(C)[C@@H](C)C(=O)N[C@@H](Cc2ccccc2)C(=O)N[C@@H]([C@@H](C)O)C(=O)N(C)[C@@H](CC(C)C)C(=O)N[C@@H](Cc2ccccc2)C(=O)N(C)[C@@H](C(C)C)C(=O)N[C@H](C(=O)N2CCCCC2)CC(=O)N[C@@H](C)C(=O)N[C@@H](CC(C)C)C(=O)N1C [DP-8] (AL[NMeI][NMeL]G[NMeA]FT[NMeL]F[NMeV]D-Piperidide; lactam N-12)	–	microsomal CLint at 1 uM [2, 3]: 36 µL/min/mg
CCN1C(=O)[C@H](CC(C)C)N(C)C(=O)[C@H](CC(C)C)NC(=O)[C@@H](C)N(C)C(=O)C[C@@H](C(=O)N2CCCCC2)NC(=O)[C@H](CC(C)C)N(C)C(=O)CN(C)C(=O)[C@H]([C@@H](C)O)NC(=O)[C@H](CC(C)C)N(C)C(=O)[C@H](Cc2ccccc2)N(C)C(=O)[C@H](C)NC(=O)[C@@H]1Cc1ccccc1 [DP-636] ([dNMeA]L[NMeL][NEtPhe]A[NMeF][NMeL]T[Sar][NMeL]D-Piperidide; lactam N-11)	73	–
C=CC[C@@H]1NC(=O)[C@H](CC(C)C)N(C)C(=O)[C@H](CC(C)C)N(C)C(=O)CNC(=O)[C@H](Cc2ccccc2)N(C)C(=O)[C@H]([C@@H](C)O)NC(=O)[C@H](CC(C)C)N(C)C(=O)[C@H](Cc2ccccc2)NC(=O)[C@H](C)NC(=O)C[C@@H](C(=O)N(C)[C@@H](Cc2ccccc2)C(=O)N[C@@H](C)C(=O)N2CCCCC2)NC1=O [DP-611] (AF[NMeL]T[NMeF]G[NMeL][NMeL][AllylGly]D[NMeF]A-Piperidide; lactam N-10)	20	–
C=CC[C@@H]1NC(=O)[C@H](CC(C)C)N(C)C(=O)[C@H](C)N(C)C(=O)[C@@H](C(C)C)NC(=O)C[C@@H](C(=O)N2CCCCC2)NC(=O)[C@H]([C@@H](C)O)NC(=O)[C@H](CC(C)C)N(C)C(=O)[C@H](C)N(C)C(=O)[C@H](CC(C)C)N(C)C(=O)[C@H](Cc2ccccc2)NC(=O)[C@H](Cc2ccccc2)N(C)C1=O [DP-628] ([dV][NMeA][NMeL][AllylGly][NMeF]F[NMeL][NMeA][NMeL]TD-Piperidide; lactam N-11)	36	–
CC[C@H](C)[C@@H]1NC(=O)[C@H](C)N(C)C(=O)CCCCc2cccc(c2)C[C@@H](C(=O)N2CCCCC2)NC(=O)[C@H](CC(C)C)N(C)C(=O)[C@H](C)N(C)C(=O)[C@H]([C@@H](C)O)NC(=O)[C@H](Cc2ccccc2)N(C)C(=O)[C@H](Cc2ccccc2)N(C)C(=O)[C@H](CC(C)C)N(C)C1=O [DP-849] ([NMeA]I[NMeL][NMeF][NMeF]T[NMeA][NMeL][Phe(3-(CH2)4CO)]-Piperidide; lactam N-9)	202	–
CC[C@H](C)[C@@H]1NC(=O)[C@H](CC(C)C)N(C)C(=O)[C@H](Cc2ccccc2)NC(=O)[C@H](CC(C)C)N(C)C(=O)[C@H](CC(C)C)NC(=O)[C@H](Cc2ccccc2)NC(=O)[C@H]([C@@H](C)O)NC(=O)[C@H](C)N(C)C(=O)[C@H](CC(C)C)NC(=O)CCN(C)C(=O)C[C@@H](C(=O)N2CCCCC2)NC1=O [DP-325] ([NMeβAla]L[NMeA]TFL[NMeL]F[NMeL]ID-Piperidide; lactam N-11)	99	–
C=C1CCC(=O)N(C)[C@@H](Cc2ccccc2)C(=O)N[C@@H](CC(C)C)C(=O)N(C)[C@@H](CC(C)C)C(=O)N[C@@H]([C@@H](C)O)C(=O)N(C)CC(=O)N(C)[C@@H]([C@@H](C)CC)C(=O)N[C@@H](COC(C)(C)C)C(=O)N(C)[C@@H](Cc2ccccc2)C(=O)N(C)[C@@H](C(C)C)C(=O)N[C@H](C(=O)N2CCCCC2)Cc2cccc1c2 [DP-851]	99	–
CC(C)C[C@@H]1NC(=O)[C@H](CC(C)C)N(C)C(=O)[C@H](C)N(C)C(=O)[C@H](Cc2ccc(O)c(F)c2)NC(=O)[C@H](Cc2ccccc2)N(C)C(=O)[C@H]([C@@H](C)O)NC(=O)[C@H](CC(C)C)N(C)C(=O)[C@H](Cc2ccccc2)NC(=O)[C@H](C)NC(=O)C[C@@H](C(=O)N(C)[C@@H](Cc2ccccc2)C(=O)N[C@@H](C)C(=O)N2CCCCC2)NC1=O [DP-606] (AF[NMeL]T[NMeF][Tyr(3-F)][NMeA][NMeL]LD[NMeF]A-Piperidide; lactam N-10)	70	–
CCCN1CC(=O)N(C)[C@@H](CC(C)C)C(=O)N[C@H](C(=O)N2CCCCC2)CC(=O)N(C)[C@H](C)C(=O)N[C@@H](CC(C)C)C(=O)N(C)[C@@H](CC(C)C)C(=O)N(C)[C@@H](Cc2ccccc2)C(=O)N[C@@H](C)C(=O)N(C)[C@@H](Cc2ccccc2)C(=O)N(C)[C@@H]([C@@H](C)CC)C(=O)N[C@@H]([C@@H](C)O)C1=O [DP-635] ([dNMeA]L[NMeL][NMeF]A[NMeF][NMeI]T[NPrGly][NMeL]D-Piperidide; lactam N-11)	112	–
CC[C@H](C)[C@@H]1NC(=O)[C@H](C)NC(=O)C[C@@H](C(=O)N2CCCCC2)NC(=O)[C@H](Cc2ccccc2)NC(=O)[C@H](C(C)C)NC(=O)[C@H](CC(C)C)NC(=O)[C@H](C)NC(=O)[C@H](Cc2ccccc2)N(C)C(=O)[C@H]([C@@H](C)O)NC(=O)[C@H](CC(C)C)NC(=O)[C@H](CC(C)C)N(C)C1=O [DP-13] (AI[NMeL]LT[NMeF]ALVFD-Piperidide; lactam N-11)	–	microsomal CLint at 1 uM [2, 3]: 66 µL/min/mg
CC(C)C[C@@H]1NC(=O)[C@H](CC(C)C)N(C)C(=O)[C@H](CC(C)C)N(C)C(=O)[C@H](Cc2ccccc2)NC(=O)[C@H](Cc2ccccc2)N(C)C(=O)[C@H](CCC(N)=O)NC(=O)[C@H](CC(C)C)N(C)C(=O)[C@H](Cc2ccccc2)NC(=O)[C@H](C)NC(=O)C[C@@H](C(=O)N(C)[C@@H](Cc2ccccc2)C(=O)N[C@@H](C)C(=O)N2CCCCC2)NC1=O [DP-601] (AF[NMeL]Q[NMeF]F[NMeL][NMeL]LD[NMeF]A-Piperidide; lactam N-10)	21	–
